Data published in the NIST ThermoML archive (doi:10.1016/j.jct.2006.09.012).
Values joined by “and” are separate entries in the source; they are usually repeats but may differ in a detail not shown here. Equal values may be shown once. Numbers after ± are expanded uncertainties.

Conditions: Gas, Buoyancy - hydrostatic balance with magnetic suspension - two sinkers

Question: Which results are given for `N#N` [nitrogen]?
Answer: mass density (340.01 K, 11962 kPa): 114.845 ± 0.18 kg/m3 and 114.844 ± 0.18 kg/m3 and 114.842 ± 0.18 kg/m3; mass density (340.01 K, 15961 kPa): 150.241 ± 0.3 kg/m3 and 150.238 ± 0.3 kg/m3 and 150.239 ± 0.3 kg/m3; mass density (340.01 K, 15962 kPa): 150.242 ± 0.3 kg/m3 and 150.24 ± 0.3 kg/m3; mass density (340.01 K, 20072 kPa): 184.447 ± 0.45 kg/m3 [middle of 5 runs]; mass density (340.01 K, 20073 kPa): 184.453 ± 0.45 kg/m3; mass density (340.01 K, 24069 kPa): 215.463 ± 0.61 kg/m3; mass density (340.01 K, 24070 kPa): 215.467 ± 0.61 kg/m3 and 215.465 ± 0.61 kg/m3 and 215.466 ± 0.61 kg/m3; mass density (340.01 K, 28607 kPa): 247.989 ± 0.81 kg/m3 and 247.99 ± 0.81 kg/m3; mass density (340.01 K, 28608 kPa): 247.996 ± 0.81 kg/m3 and 247.999 ± 0.81 kg/m3 and 247.993 ± 0.81 kg/m3; mass density (340.01 K, 33718 kPa): 281.379 ± 1 kg/m3; mass density (340.01 K, 33719 kPa): 281.38 ± 1 kg/m3 and 281.384 ± 1 kg/m3; mass density (340.01 K, 33720 kPa): 281.389 ± 1 kg/m3 and 281.386 ± 1 kg/m3; mass density (359.99 K, 5385.3 kPa): 49.7747 ± 0.036 kg/m3; mass density (359.99 K, 5385.4 kPa): 49.7738 ± 0.036 kg/m3 and 49.7746 ± 0.036 kg/m3; mass density (359.99 K, 5385.5 kPa): 49.7747 ± 0.036 kg/m3 and 49.7744 ± 0.036 kg/m3; mass density (359.99 K, 11539 kPa): 104.182 ± 0.15 kg/m3; mass density (359.99 K, 23337 kPa): 197.246 ± 0.52 kg/m3; mass density (360 K, 11538 kPa): 104.181 ± 0.15 kg/m3 and 104.18 ± 0.15 kg/m3; mass density (360 K, 11539 kPa): 104.182 ± 0.15 kg/m3 and 104.181 ± 0.15 kg/m3; mass density (360 K, 23336 kPa): 197.238 ± 0.52 kg/m3 and 197.239 ± 0.52 kg/m3 and 197.241 ± 0.52 kg/m3; mass density (360 K, 23337 kPa): 197.243 ± 0.52 kg/m3; mass density (379.99 K, 5685.7 kPa): 49.5887 ± 0.036 kg/m3 [middle of 4 runs]; mass density (379.99 K, 5685.8 kPa): 49.589 ± 0.036 kg/m3 and 49.5891 ± 0.036 kg/m3; mass density (379.99 K, 12228 kPa): 103.776 ± 0.15 kg/m3 and 103.778 ± 0.15 kg/m3; mass density (380 K, 12228 kPa): 103.775 ± 0.15 kg/m3 and 103.776 ± 0.15 kg/m3; mass density (380 K, 24868 kPa): 196.492 ± 0.53 kg/m3 and 196.493 ± 0.53 kg/m3 and 196.491 ± 0.53 kg/m3; mass density (380 K, 24869 kPa): 196.497 ± 0.53 kg/m3 and 196.496 ± 0.53 kg/m3 and 196.492 ± 0.53 kg/m3; mass density (399.97 K, 499.5 kPa): 4.2016 ± 0.0033 kg/m3 and 4.2015 ± 0.0033 kg/m3 and 4.2014 ± 0.0033 kg/m3; mass density (399.97 K, 999 kPa): 8.3914 ± 0.0037 kg/m3 and 8.3913 ± 0.0037 kg/m3 and 8.3912 ± 0.0037 kg/m3; mass density (399.97 K, 1998 kPa): 16.7314 ± 0.0087 kg/m3 and 16.7313 ± 0.0087 kg/m3 and 16.7315 ± 0.0087 kg/m3; mass density (399.97 K, 3996 kPa): 33.2413 ± 0.018 kg/m3 and 33.241 ± 0.018 kg/m3 and 33.2411 ± 0.018 kg/m3; mass density (399.97 K, 5994.1 kPa): 49.4948 ± 0.036 kg/m3 and 49.4949 ± 0.036 kg/m3 and 49.4947 ± 0.036 kg/m3; mass density (399.99 K, 5983.6 kPa): 49.4072 ± 0.036 kg/m3 and 49.4075 ± 0.036 kg/m3; mass density (399.99 K, 5983.7 kPa): 49.4089 ± 0.036 kg/m3 and 49.4079 ± 0.036 kg/m3; mass density (399.99 K, 5983.8 kPa): 49.4087 ± 0.036 kg/m3 and 49.4092 ± 0.036 kg/m3; mass density (399.99 K, 12911 kPa): 103.383 ± 0.16 kg/m3; mass density (399.99 K, 12912 kPa): 103.387 ± 0.16 kg/m3; mass density (400 K, 12911 kPa): 103.385 ± 0.16 kg/m3 and 103.384 ± 0.16 kg/m3 and 103.383 ± 0.16 kg/m3; mass density (400 K, 12912 kPa): 103.388 ± 0.16 kg/m3; mass density (400 K, 26381 kPa): 195.763 ± 0.53 kg/m3 and 195.766 ± 0.53 kg/m3; mass density (400 K, 26382 kPa): 195.77 ± 0.53 kg/m3; mass density (400 K, 26383 kPa): 195.774 ± 0.53 kg/m3; mass density (419.99 K, 6278.6 kPa): 49.2274 ± 0.036 kg/m3 [middle of 5 runs]; mass density (419.99 K, 13587 kPa): 103.001 ± 0.16 kg/m3 and 103.002 ± 0.16 kg/m3; mass density (420 K, 13587 kPa): 103 ± 0.16 kg/m3 and 103.001 ± 0.16 kg/m3 and 103.002 ± 0.16 kg/m3; mass density (420 K, 27876 kPa): 195.057 ± 0.54 kg/m3 and 195.058 ± 0.54 kg/m3 and 195.06 ± 0.54 kg/m3; mass density (420 K, 27877 kPa): 195.065 ± 0.54 kg/m3 and 195.064 ± 0.54 kg/m3; mass density (420 K, 27878 kPa): 195.07 ± 0.54 kg/m3; mass density (439.98 K, 499.5 kPa): 3.8187 ± 0.0032 kg/m3 [middle of 5 runs]; mass density (439.98 K, 999 kPa): 7.6237 ± 0.0036 kg/m3 and 7.6236 ± 0.0036 kg/m3 and 7.6238 ± 0.0036 kg/m3; mass density (439.98 K, 1998 kPa): 15.1913 ± 0.008 kg/m3 and 15.1914 ± 0.008 kg/m3; mass density (439.98 K, 3995.9 kPa): 30.1496 ± 0.015 kg/m3 [middle of 4 runs]; mass density (439.98 K, 5993.9 kPa): 44.8532 ± 0.031 kg/m3 [middle of 4 runs]; mass density (439.99 K, 6571 kPa): 49.0492 ± 0.037 kg/m3; mass density (439.99 K, 6571.1 kPa): 49.0504 ± 0.037 kg/m3 and 49.0497 ± 0.037 kg/m3 and 49.05 ± 0.037 kg/m3; mass density (440 K, 14255 kPa): 102.622 ± 0.16 kg/m3 [middle of 6 runs]; mass density (440 K, 29348 kPa): 194.34 ± 0.54 kg/m3 and 194.342 ± 0.54 kg/m3 and 194.344 ± 0.54 kg/m3; mass density (440 K, 29349 kPa): 194.345 ± 0.54 kg/m3 and 194.347 ± 0.54 kg/m3 and 194.348 ± 0.54 kg/m3; mass density (459.99 K, 6861.3 kPa): 48.8758 ± 0.049 kg/m3 and 48.8757 ± 0.049 kg/m3; mass density (460 K, 6861.3 kPa): 48.8757 ± 0.049 kg/m3 and 48.8759 ± 0.049 kg/m3; mass density (460 K, 6861.4 kPa): 48.8764 ± 0.049 kg/m3; mass density (460 K, 14917 kPa): 102.251 ± 0.16 kg/m3 [middle of 5 runs]; mass density (460 K, 14918 kPa): 102.253 ± 0.16 kg/m3; mass density (460 K, 30809 kPa): 193.675 ± 0.55 kg/m3; mass density (460 K, 30810 kPa): 193.681 ± 0.55 kg/m3 and 193.677 ± 0.55 kg/m3 and 193.678 ± 0.55 kg/m3; mass density (460 K, 30811 kPa): 193.683 ± 0.55 kg/m3; mass density (460 K, 30812 kPa): 193.69 ± 0.55 kg/m3; mass density (479.99 K, 7148.6 kPa): 48.7024 ± 0.049 kg/m3; mass density (479.99 K, 7148.7 kPa): 48.7027 ± 0.049 kg/m3; mass density (480 K, 499.5 kPa): 3.4995 ± 0.0031 kg/m3 [middle of 5 runs]; mass density (480 K, 999 kPa): 6.9854 ± 0.0034 kg/m3 [middle of 5 runs]; mass density (480 K, 1998 kPa): 13.9143 ± 0.0073 kg/m3 [middle of 5 runs]; mass density (480 K, 3996 kPa): 27.6012 ± 0.014 kg/m3 and 27.6015 ± 0.014 kg/m3 and 27.6009 ± 0.014 kg/m3; mass density (480 K, 5994 kPa): 41.0449 ± 0.027 kg/m3 and 41.045 ± 0.027 kg/m3; mass density (480 K, 5994.1 kPa): 41.0449 ± 0.027 kg/m3 and 41.0443 ± 0.027 kg/m3 and 41.045 ± 0.027 kg/m3; mass density (480 K, 7148.6 kPa): 48.7016 ± 0.049 kg/m3 and 48.7015 ± 0.049 kg/m3; mass density (480 K, 7148.7 kPa): 48.7027 ± 0.049 kg/m3; mass density (480 K, 15572 kPa): 101.884 ± 0.16 kg/m3 [middle of 5 runs]; mass density (480 K, 15573 kPa): 101.886 ± 0.16 kg/m3; mass density (480 K, 32254 kPa): 193.025 ± 0.55 kg/m3; mass density (480 K, 32255 kPa): 193.027 ± 0.55 kg/m3 and 193.029 ± 0.55 kg/m3; mass density (480 K, 32256 kPa): 193.032 ± 0.55 kg/m3 and 193.035 ± 0.55 kg/m3; mass density (500 K, 7433.7 kPa): 48.5307 ± 0.048 kg/m3 and 48.5313 ± 0.048 kg/m3; mass density (500 K, 7433.8 kPa): 48.531 ± 0.048 kg/m3 and 48.5323 ± 0.048 kg/m3 and 48.5317 ± 0.048 kg/m3; mass density (500 K, 7433.9 kPa): 48.5314 ± 0.048 kg/m3; mass density (500 K, 16220 kPa): 101.517 ± 0.16 kg/m3 and 101.518 ± 0.16 kg/m3 and 101.519 ± 0.16 kg/m3; mass density (500 K, 16221 kPa): 101.519 ± 0.16 kg/m3 and 101.521 ± 0.16 kg/m3; mass density (500 K, 33681 kPa): 192.377 ± 0.56 kg/m3; mass density (500 K, 33682 kPa): 192.38 ± 0.56 kg/m3 and 192.382 ± 0.56 kg/m3; mass density (500 K, 33683 kPa): 192.384 ± 0.56 kg/m3; mass density (500 K, 33684 kPa): 192.389 ± 0.56 kg/m3; mass density (500 K, 33686 kPa): 192.396 ± 0.56 kg/m3
